Data reported in paper PMC10605010, “Immunotechniques for the Group Determination of Macrolide Antibiotics Traces in the Environment Using a Volume-Mediated Sensitivity Enhancement Strategy” (Biosensors, 2023).
In brackets after ≈: the same amount, converted by molar mass. Several values for one entry are separate records, joined by “and”; a condition that tells them apart may be missing. Equal values may be shown once. Read-outs that look alike come from different tables or passages of the source.

Assays:
[1] = test system: anti-BSA-cmoCLA(ae) antibodies; assay: Indirect competitive ELISA (icELISA), variants by coating antigen; format: binding, rabbit; settings: for CR: CLA = 100
Description: In present work, we investigated and compared several new-designed and previously established coating antigens, which were adsorbed on the 96-well Costar plates from 0.1 to 3.0 µg/mL solutions in CBB (pH 9.6) overnight at 4 °C. […] Solutions of these analytes (1 pg/mL–1 μg/mL) were added to wells of the plate along with anti-cmoCLA antibody in PBS-T with 1%BSA and incubated for 1 h at 25 °C in plate-shaker ST-3 L (ELMI Ltd. laboratory equipment, Riga, Latvia). GAR-HRP was used to detect antigen-antibody formed complexes for 1 h at 37 °C. The activity of the bound enzyme was detected using TMB-substrate mixture, and the intensity of colored product was read at 450 nm using a LisaScan spectrophotometer (Erba Mannheim, Czech Republic). […] The relative antibody-binding absorbance (B/B0) was determined for each concentration of analyte and used to construct a calibration curve as B/B0 versus the concentration. Structurally related macrolides CLA, ESE, ROX, AZI, DIR, TUL, and OLE were analyzed for their cross-reactions. […] Assay sensitivity, limit of detection (LOD), and working range of the assay were set as values of IC50, IC10, and IC20-IC80 range, respectively.

[2] = test system: anti-BSA-cmoCLA(ae) antibodies; set-up: method as in PMID 25256165; settings: coating antigen GEL-cmoCLA(ae), cited from earlier work; for IC50: homologous; for CR: CLA = 100, recalculated from ref 18
[3] = test system: antibody to immunogen BSA-cmoERY(ma); set-up: method as in PMID 25308648; settings: milk; ERY = 100; cited from earlier work
[4] = test system: antibody to immunogen BSA-cmoCLA(ae); set-up: method as in doi:10.1039/C9QM00429G; settings: milk, cited from earlier work; for CR: CLA = 100
[5] = test system: antibody to immunogen BSA-cmoCLA(ae); set-up: method as in PMID 32693204; settings: breast milk, cited from earlier work; for CR: CLA = 100
[6] = test system: antibody to immunogen BSA-cmoERY(ma); settings: milk; ERY = 100; cited from earlier work
[7] = coating antigen OVA-aecAZI(dma)

SMILES	IC50 ([1]; coating antigen OVA(pi)-aecAZI)	CR ([1]; coating antigen OVA(pi)-aecAZI)	IC50 [1, 7]	CR [1, 7]	IC50 ([1]; coating antigen OVA-aecAZI(ga))	CR ([1]; coating antigen OVA-aecAZI(ga))	IC50 ([1]; coating antigen OVA-cmoERY(ae))	CR ([1]; coating antigen OVA-cmoERY(ae))	CR (detectability) ([1]; span over all ELISAs utilizing coated AZI conjugates)	IC50 [2]	CR [2]	CR [3]	CR [4]	CR [5]	IC50 [4]	LOD [4]	IC50 [5]	LOD [5]	CR [6]
CC[C@H]1OC(=O)[C@H](C)[C@@H](O[C@H]2C[C@@](C)(OC)[C@@H](O)[C@H](C)O2)[C@H](C)[C@@H](O[C@@H]2O[C@H](C)C[C@H](N(C)C)[C@H]2O)[C@](C)(O)C[C@@H](C)CN(C)[C@H](C)[C@@H](O)[C@]1(C)O [AZI, azithromycin]	0.107 ng/mL (≈ 0.143 nM)	41% and 41.1%	1.220 ng/mL (≈ 1.63 nM)	12.9%	0.315 ng/mL (≈ 0.421 nM)	13.7%	1.990 ng/mL (≈ 2.66 nM)	9% and 8.6%	13–41%	1.63 ng/mL (≈ 2.18 nM)	9% and 8.8%	0.9%	16.2%	5.7%	–	–	–	–	–
CC[C@H]1OC(=O)[C@H](C)[C@@H](O[C@H]2C[C@@](C)(OC)[C@@H](O)[C@H](C)O2)[C@H](C)[C@@H](O[C@@H]2O[C@H](C)C[C@H](N(C)C)[C@H]2O)[C@](C)(OC)C[C@@H](C)C(=O)[C@H](C)[C@@H](O)[C@]1(C)O [CLA, clarithromycin]	0.044 ng/mL (≈ 0.0588 nM)	100%	0.157 ng/mL (≈ 0.21 nM)	100%	0.043 ng/mL (≈ 0.0575 nM)	100%	0.172 ng/mL (≈ 0.23 nM)	100%	–	0.16 ng/mL (≈ 0.214 nM)	100%	26.7%	100%	100%	0.16 ng/mL (≈ 0.214 nM)	0.095 ng/mL	0.45 ng/mL (≈ 0.602 nM)	0.12 ng/mL	26.7%
CC[C@H]1OC(=O)[C@H](C)[C@@H](O[C@H]2C[C@@](C)(OC)[C@@H](O)[C@H](C)O2)[C@H](C)[C@@H](O[C@@H]2O[C@H](C)C[C@H](N(C)C)[C@H]2O)[C@](C)(O)C[C@@H](C)[C@@H]2N[C@@H](COCCOC)O[C@H]([C@H]2C)[C@]1(C)O [DIR, dirithromycin]	0.096 ng/mL (≈ 0.115 nM)	45.8%	0.544 ng/mL (≈ 0.651 nM)	28.9%	0.136 ng/mL (≈ 0.163 nM)	31.6%	0.554 ng/mL (≈ 0.663 nM)	31%	–	–	–	157%	–	5.4%	–	–	–	–	157%
CCOC(=O)CCC(=O)O[C@H]1[C@H](O[C@@H]2[C@@H](C)[C@H](O[C@H]3C[C@@](C)(OC)[C@@H](O)[C@H](C)O3)[C@@H](C)C(=O)O[C@H](CC)[C@@](C)(O)[C@H](O)[C@@H](C)C(=O)[C@H](C)C[C@@]2(C)O)O[C@H](C)C[C@@H]1N(C)C [ESE, erythromycin ethyl succinate]	0.074 ng/mL	59.5%	0.352 ng/mL	44.6%	0.094 ng/mL	45.7%	0.466 ng/mL	37% and 36.9%	–	–	–	–	–	–	–	–	–	–	43.7%
CO[C@H]1C[C@H](O[C@H]2[C@H](C)[C@@H](O[C@@H]3O[C@H](C)C[C@H](N(C)C)[C@H]3O)[C@@H](C)C[C@@]3(CO3)C(=O)[C@H](C)[C@@H](O)[C@@H](C)[C@@H](C)OC(=O)[C@@H]2C)O[C@@H](C)[C@@H]1O [OLE, oleandomycin]	45.64 ng/mL (≈ 66.3 nM)	0.1%	287.2 ng/mL (≈ 418 nM)	0.05%	40.10 ng/mL (≈ 58.3 nM)	0.11%	75.75 ng/mL (≈ 110 nM)	0.2%	–	–	–	–	–	–	–	–	–	–	–
CC[C@H]1OC(=O)[C@H](C)[C@@H](O[C@H]2C[C@@](C)(OC)[C@@H](O)[C@H](C)O2)[C@H](C)[C@@H](O[C@@H]2O[C@H](C)C[C@H](N(C)C)[C@H]2O)[C@](C)(O)C[C@@H](C)/C(=N\OCOCCOC)[C@H](C)[C@@H](O)[C@]1(C)O [ROX, roxithromycin]	0.051 ng/mL (≈ 0.0609 nM)	86.3%	0.157 ng/mL (≈ 0.188 nM)	100%	0.040 ng/mL (≈ 0.0478 nM)	107.5%	0.125 ng/mL (≈ 0.149 nM)	137.6%	–	0.14 ng/mL (≈ 0.167 nM)	125%	14.8%	21.1%	97.8%	–	–	–	–	92%
CCCNC[C@]1(O)[C@H](C)O[C@@H](O[C@H]2[C@H](C)[C@@H](O[C@@H]3O[C@H](C)C[C@H](N(C)C)[C@H]3O)[C@](C)(O)C[C@@H](C)CN[C@H](C)[C@@H](O)[C@](C)(O)[C@@H](CC)OC(=O)[C@@H]2C)C[C@@]1(C)OC [TUL, tulathromycin]	5.403 ng/mL (≈ 6.7 nM)	0.81%	379.5 ng/mL (≈ 471 nM)	0.04%	134.8 ng/mL (≈ 167 nM)	0.03%	629.9 ng/mL (≈ 781 nM)	–	–	–	–	–	–	–	–	–	–	–	–
